Experiments:
Syk kinase = molecular target: T1, Syk kinase (Homo sapiens, UniProt P43405); test: In vitro inhibitory effect on Syk kinase (HTRF enzymatic experiment); assay type: biochemical; conditions: ATP 2 μM, read-out: IC50 (nM) for inhibition of Syk enzyme
T1 construct: purchased Invitrogen PV3857
Excerpt: The interaction between the substrate and the enzyme was detected by HTRF, using the IC50 value of the compound as an indicator to evaluate the inhibitory effect of the compound on Syk kinase.
• Syk kinase (Invitrogen, PV3857) • DTT (Sigma #43815) • ATP (Sigma #A7699) • MgCl2 (Sigma #63020) • MnCl2 (Sigma #M1787) • EDTA (Invitrogen #15575-020) • HEPES Buffer (Invitrogen #15630-080) • HTRF® KinEASE™ TK (Cisbio #62TKOPEC, 20000 tests) • Low volume, 384-well, white polystyrene plate (Greiner #784075) • 384 Well Microplates (Greiner #781946) • Centrifuge (Eppendorf #5810R) • Pipette (Eppendorf) • Pipette (Greiner) • Pipette gun (Eppendorf) • Mutidorp Pipette • POD 810 Plate Assembler Automatic Microplate Pretreatment System • Envision Reader • Experimental Steps and Methods: • a) Compound dilution and plate-making: • 1) The compound powder was weighed, dissolved in a certain amount of DMSO at an initial concentration of 10 mM. • 2) The compound was diluted to a concentration of 0.74 mM, and plated with POD18, 135 nL per well, the starting compound concentration was 10 μM, and there were 11 concentration points, with 3-fold descending serial dilutions. • b) Enzyme-substrate reaction stage: • 1) Preparation and dilution of the experimental buffer: the 5×HTRF Buffer in the kit was diluted to 1×, and specified amounts of DTT and MgCl2 solutions were added for use. • 2) SYK enzyme reaction solution was prepared with 1×HTRF Buffer so that the final reaction concentration of SYK kinase was 0.0156 ng/μL. • 3) TK-Substrate-biotin/ATP mixture was prepared so that the final substrate concentration was controlled at 0.2 μM. ATP concentration was controlled at 2 μM. • 4) The solution and the mixture were added with a Mutidorp pipette, SYK enzyme solution and TK-Substrate-biotin/ATP mixture were each added 5 μL per well, and incubated with 23 solution for 1 hour. • c) Detection stage: • 1) 13.33 mL of ethylenediaminetetraacetic acid solution was added to the detection buffer of the kit, and specified amounts of Eu-labeled antibody and XL-665 were added to prepare the detection solution. • 2) The solution was added with a Mutidorp pipette, 10 μL of detection solution per well, and incubated with 23 solution for 1 hour. The reaction of the enzyme and substrate mixture was stopped. • 3) After centrifugation, the reading was obtained on Envision. • d) Data analyzation: the data was analyzed using XL-Fit and the IC50 value of the compound was calculated.

[1] = molecular target: VEGFR2 kinase (KDR enzyme) (Homo sapiens, UniProt P35968); test: In vitro inhibitory effect on VEGFR2 kinase (ADP-Glo enzymatic experiment); assay type: biochemical; conditions: read-out: IC50 (nM) for inhibition of VEFGR2 enzyme
Procedure: The VEGFR2 kinase assay kit is intended for measuring VEGFR2 kinase activity using Kinase-Glo®MAX as a detection reagent, and compound screening and analysis were conducted using the IC50 value of the compound as an indicator.
The ADP-GLO™ Kinase Assay is an analytical reaction in which a luminescent kinase is used to determine the adenosine diphosphate formed by the kinase; ADP is converted to ATP, i.e., an optical signal is generated by Ultra-Glo™ luciferase. The optical signal is positively correlated with ADP quantity and kinase activity. This assay is ideal for determining the activity of the compound, making it ideal for primary screening and kinase selectivity analysis. The ADP-Glo™ Kinase Assay can be used to monitor the activity of virtually any ADP-producing enzyme such as a kinase orATPase: • 1) The enzyme, substrate, ATP and inhibitor were diluted in a kinase buffer; • 2) 384-well plate: 1 μL of inhibitor or (5% dimethyl sulfoxide solution), 2 μL of KDR enzyme, 2 μL of matrix/ATP mixture; • 3) the mixture was incubated at room temperature for 60 minutes; • 4) 5 μL of ADP-GLO™ reagent was added; • 5) the mixture was incubated for 40 minutes at room temperature; • 6) 10 μL of kinase detection reagent was added; • 7) the mixture was incubated at room temperature for 30 minutes; • 8) the luminescence was recorded (integration time 0.5-1 sec). The data was shown in relative light units (rlu), which was directly related to the amount of […]. There was correlation between the percent of the conversion from ATP to ADP for each kinase amount and the corresponding signal-to-background ratio. • 9) Data analysis: (a) KDR enzyme was titrated with 50 μM of ATP, and the luminescent signal produced by KDR enzyme was shown; (b) staurosporine dose response was generated with 1.5 ng of KDR to determine the IC50 value of the inhibitor.

VEGFR2 kinase (KDR enzyme), sequence (P35968 20-1356, species assumed): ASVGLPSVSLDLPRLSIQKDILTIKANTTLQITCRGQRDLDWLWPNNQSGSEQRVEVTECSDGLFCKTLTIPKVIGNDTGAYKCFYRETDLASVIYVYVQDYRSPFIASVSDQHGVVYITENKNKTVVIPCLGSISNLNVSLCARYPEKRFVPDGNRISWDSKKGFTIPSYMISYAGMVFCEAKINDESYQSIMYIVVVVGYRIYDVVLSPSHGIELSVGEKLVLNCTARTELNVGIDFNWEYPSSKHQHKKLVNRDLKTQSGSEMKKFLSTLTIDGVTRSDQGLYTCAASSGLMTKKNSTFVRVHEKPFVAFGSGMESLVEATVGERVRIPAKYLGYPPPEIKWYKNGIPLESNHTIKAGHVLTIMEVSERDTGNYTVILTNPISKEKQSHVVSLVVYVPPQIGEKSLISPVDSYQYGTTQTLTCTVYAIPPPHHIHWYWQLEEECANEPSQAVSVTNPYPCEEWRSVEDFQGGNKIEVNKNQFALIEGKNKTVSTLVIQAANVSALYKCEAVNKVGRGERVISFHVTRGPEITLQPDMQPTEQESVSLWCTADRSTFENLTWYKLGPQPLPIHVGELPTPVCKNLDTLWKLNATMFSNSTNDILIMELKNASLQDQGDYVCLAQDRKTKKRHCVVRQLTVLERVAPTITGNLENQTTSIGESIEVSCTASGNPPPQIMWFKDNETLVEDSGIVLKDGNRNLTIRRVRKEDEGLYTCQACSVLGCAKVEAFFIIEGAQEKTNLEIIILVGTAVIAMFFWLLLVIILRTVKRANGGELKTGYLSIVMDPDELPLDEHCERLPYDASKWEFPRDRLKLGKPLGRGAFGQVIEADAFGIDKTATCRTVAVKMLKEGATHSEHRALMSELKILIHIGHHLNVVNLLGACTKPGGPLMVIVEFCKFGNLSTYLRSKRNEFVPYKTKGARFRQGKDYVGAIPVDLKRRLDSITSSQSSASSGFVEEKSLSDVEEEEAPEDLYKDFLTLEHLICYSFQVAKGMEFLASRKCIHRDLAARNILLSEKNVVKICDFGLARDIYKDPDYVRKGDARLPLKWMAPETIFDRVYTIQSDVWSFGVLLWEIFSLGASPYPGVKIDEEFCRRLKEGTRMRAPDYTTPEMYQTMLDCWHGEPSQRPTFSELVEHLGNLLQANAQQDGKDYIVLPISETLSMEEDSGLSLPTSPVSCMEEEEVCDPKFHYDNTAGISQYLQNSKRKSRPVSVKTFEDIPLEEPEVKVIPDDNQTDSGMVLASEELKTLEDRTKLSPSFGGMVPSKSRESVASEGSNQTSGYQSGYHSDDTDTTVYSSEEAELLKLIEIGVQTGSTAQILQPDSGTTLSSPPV

SMILES | IC50 (Syk kinase) | IC50 [1]
c1cn2c(n1)c(Nc1ccc(N3CCN(C4COC4)CC3)cc1)nc1ccc(-c3cn[nH]c3)cc12 [Compound 5] | 17 nM | 19 nM
CN1CCN(c2ccc(Nc3nc4ccc(-c5cn[nH]c5)cc4n4ccnc34)cc2)CC1 [Compound 6] | 50 nM | 44 nM
CN1CCCN(c2ccc(Nc3nc4ccc(-c5cn[nH]c5)cc4n4ccnc34)cc2)CC1 [Compound 7] | 34 nM | 42 nM
CC1(O)CCN(c2ccc(Nc3nc4ccc(-c5cn[nH]c5)cc4n4ccnc34)cc2)CC1 [Compound 8] | 30 nM | 31 nM
N=S1(=O)CCN(c2ccc(Nc3nc4ccc(-c5cn[nH]c5)cc4n4ccnc34)cc2)CC1 [Compound 9] | 23 nM | 22 nM
c1cn2c(n1)c(Nc1ccc(N3CCOCC3)cc1)nc1ccc(-c3cc[nH]n3)cc12 [Compound 2] | 125 nM | 31 nM

Next, values leading:

IC50 (Syk kinase) | IC50 [1] | SMILES
34 nM | 56 nM | c1cn2c(n1)c(Nc1ccc(C3CCOCC3)cc1)nc1ccc(-c3cn[nH]c3)cc12 [Compound 11]
315 nM | 88 nM | c1cn2c(n1)c(Nc1ccc(N3CCC4(CC3)COC4)cc1)nc1ccc(-c3cn[nH]c3)cc12 [Compound 12]
11 nM | 41 nM | CC(=O)N=S1(=O)CCN(c2ccc(Nc3nc4ccc(-c5cn[nH]c5)cc4n4ccnc34)cc2)CC1 [Compound 10]

Reference: US12637469B2, “1H-pyrazole derivative and application thereof as dual target inhibitor of Syk and VEGFR2” (Ocumension Therapeutics (Suzhou) Co., Ltd., priority 2020, dated 2026)
